Data as given in US20170081368A1, “PEPTIDES AS OXYTOCIN AGONISTS” (Hoffmann-La Roche Inc., priority 2014, published 2017).
Where a SMILES comes first, the peptide text is derived from it.

What was measured:
[1] = biological target: T1, human Oxytocin (OTR) receptor (Homo sapiens, UniProt P30559); assay: Calcium flux assay (FLIPR) in CHO cells expressing human OTR; format: cell-based; conditions: for Emax: CHO, read-out: hOT efficacy; for Emax / hOT efficacy: maximum response normalized to endogenous full agonist = 100%; for EC50: agonist mode, CHO cells, calcium flux FLIPR, read-out: hOT EC50
T1 construct: expressed in transfected cells
T1 sequence (P30559 1-389): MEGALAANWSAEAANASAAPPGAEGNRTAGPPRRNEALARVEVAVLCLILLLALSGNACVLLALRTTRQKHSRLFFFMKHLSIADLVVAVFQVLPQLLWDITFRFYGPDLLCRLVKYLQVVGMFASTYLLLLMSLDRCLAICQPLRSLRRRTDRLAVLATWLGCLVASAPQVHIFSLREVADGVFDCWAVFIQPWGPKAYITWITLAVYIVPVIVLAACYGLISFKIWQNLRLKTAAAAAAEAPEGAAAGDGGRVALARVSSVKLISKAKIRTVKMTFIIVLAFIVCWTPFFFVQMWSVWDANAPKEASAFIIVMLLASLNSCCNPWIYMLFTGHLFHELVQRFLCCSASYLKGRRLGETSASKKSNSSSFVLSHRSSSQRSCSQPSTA
From the text: (§1) Chines Hamster Ovary (CHO) cells were transfected with expression plasmids encoding either the human Vla, the human Oxytocin (OTR) or the humanV2 receptor, the later in combination with the chimeric Gqs5 G protein to redirect the signal to Calcium flux. Stable cells were cloned by limiting dilution to yield monoclonal cell lines expressing either human Vla, human V2+Gqs5 or human OTR receptors and selected based on functional responses detected on a fluorometric imaging plate reader (FLIPR) detecting Calcium flux in the cell after receptor activation. The stable cell lines were grown in F-12 K Nutrient Mixture (Kaighns Modification), containing 10% foetal bovine serum (FBS), 1% penicillin-streptomycin, 1% L-glutamate, 200 ug/ml Geneticin at 37° C. in a 10% CO2 incubator at 95% humidity.
(§2) Calcium Flux Assays Using Fluorescent Imaging (Fluorometric Imaging Plate Reader, FLIPR)
(§3) On the afternoon before the assay, cells were plated at a density of 50,000 cells/well into black 96 well plates with clear bottoms to allow cell inspection and fluorescence measurements from the bottom of each well. The density of cells was sufficient to yield a confluent monolayer the next day. Hanks balanced salt solution, without phenol red, containing 20 mM HEPES (pH 7.3) and 2.5 mM probenecid (assay buffer) was prepared fresh for each experiment. Compound dilutions were made using a Beckman Biomek 2000 laboratory automation workstation, in assay buffer containing 1% DMSO. The dye-loading buffer consisted of a final concentration of 2 μM Fluo-4-AM (dissolved in DMSO and pluronic acid) in assay buffer. The existing culture media was removed from the wells and 100 μl of the dye-loading buffer was added to each well and incubated for approximately 60 min at 37° C. in a 5% CO2 incubator at 95% humidity. Once dye-loaded, the cells were washed thoroughly on an Embla cell washer with the assay buffer to remove any unincorporated dye. Exactly 100 μl assay buffer was left in each well.
(§4) Each 96 well plate containing dye-loaded cells was placed into the FLIPR machine and the laser intensity set to a suitable level to detect low basal fluorescence. To test compounds as agonists, 25 μl diluted compound was added to the plate 10 seconds into the fluorescent measurements and fluorescent response was recorded for 5 minutes. The fluorescence data was normalized to the endogenous full agonist dose-response set at 100% for the maximum response and 0% for the minimum. Each agonist concentration-response curve was constructed using a four parameter logistic equation with Microsoft Excel XLFit as follows: Y=Minimum+((Maximum−Minimum)/(1+10^(LogEC50−X)nH)), where y is the % normalized fluorescence, minimum is the minimum y, maximum is the maximum y, log EC50 is the log10 concentration which produces 50% of the maximum induced fluorescence, x is the log10 of the concentration of the agonist compound and H is the slope of the curve (the Hill Coefficient). The maximum value gives the efficacy of the agonist test compound in percentage. The concentration of agonist that produced a half-maximal response is represented by the EC50 value, the logarithm of which yielded the pEC50 value.

[2] = biological target: T2, human V2 receptor (Homo sapiens, UniProt P30518); assay: Calcium flux assay (FLIPR) in CHO cells expressing human V2+Gqs5; format: cell-based; conditions: for Emax: CHO, maximum response normalized to endogenous full agonist = 100%, read-out: hV2 efficacy; for EC50: agonist mode, CHO cells with chimeric Gqs5, calcium flux FLIPR, read-out: hV2 EC50
T2 construct: expressed in transfected cells
From the text: as §1, §2, §3, §4

T2 sequence (P30518 whole entry): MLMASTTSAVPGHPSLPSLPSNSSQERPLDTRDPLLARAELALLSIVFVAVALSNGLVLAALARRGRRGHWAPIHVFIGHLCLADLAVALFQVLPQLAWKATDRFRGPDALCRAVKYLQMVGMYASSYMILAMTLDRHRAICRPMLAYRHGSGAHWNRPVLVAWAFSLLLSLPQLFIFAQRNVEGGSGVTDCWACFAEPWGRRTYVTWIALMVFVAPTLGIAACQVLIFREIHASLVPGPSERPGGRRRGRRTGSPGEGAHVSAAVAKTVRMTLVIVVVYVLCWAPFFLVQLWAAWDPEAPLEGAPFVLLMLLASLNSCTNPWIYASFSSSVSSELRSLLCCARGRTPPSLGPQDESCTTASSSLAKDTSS

## CC[C@H](C)[C@@H]1NC(=O)[C@H](Cc2ccc(O)cc2)NC(=O)CCS(=O)(=O)CC[C@@H](C(=O)N(C)CC(=O)N[C@@H](Cc2ccc(O)cc2)C(=O)NCC(N)=O)NC(=O)[C@H](CC(N)=O)NC(=O)[C@H](CCC(N)=O)NC1=O [Example 17] (HELM PEPTIDE1{Y.I.Q.N.[O=C([C@H](CCS(=O)(=O)CCC(=O)[*:3])N[*:1])[*:2]].[Sar].Y.G.[am]}$PEPTIDE1,PEPTIDE1,1:R1-5:R3$$$V2.0)
[1]
  Emax: 105%
  EC50: 2.2 nM

## CC[C@H](C)[C@@H]1NC(=O)[C@H](Cc2ccc(O)cc2)NC(=O)CCS(=O)(=O)CC[C@@H](C(=O)N(C)CC(=O)N[C@@H](CO)C(=O)NCC(N)=O)NC(=O)[C@H](CC(N)=O)NC(=O)[C@H](CCC(N)=O)NC1=O [Example 18] (HELM PEPTIDE1{Y.I.Q.N.[O=C([C@H](CCS(=O)(=O)CCC(=O)[*:3])N[*:1])[*:2]].[Sar].S.G.[am]}$PEPTIDE1,PEPTIDE1,1:R1-5:R3$$$V2.0; C-terminus assumed; bridges inferred)
[1]
  Emax: 102%

## CC[C@H](C)[C@@H]1NC(=O)[C@H](Cc2ccc(O)cc2)NC(=O)CCS(=O)(=O)CC[C@@H](C(=O)N(C)CC(=O)N[C@@H](C)C(=O)NCC(N)=O)NC(=O)[C@H](CC(N)=O)NC(=O)[C@H](CCC(N)=O)NC1=O [Example 19] (HELM PEPTIDE1{Y.I.Q.N.[O=C([C@H](CCS(=O)(=O)CCC(=O)[*:3])N[*:1])[*:2]].[Sar].A.G.[am]}$PEPTIDE1,PEPTIDE1,1:R1-5:R3$$$V2.0)
[1]
  Emax: 110%
  EC50: 1.4 nM

## CC[C@H](C)[C@@H]1NC(=O)[C@H](Cc2ccc(O)cc2)NC(=O)CCS(=O)(=O)CC[C@@H](C(=O)N(C)CC(=O)N[C@@H](CN)C(=O)NCC(N)=O)NC(=O)[C@H](CC(N)=O)NC(=O)[C@H](CCC(N)=O)NC1=O [Example 20] (HELM PEPTIDE1{Y.I.Q.N.[O=C([C@H](CCS(=O)(=O)CCC(=O)[*:3])N[*:1])[*:2]].[Sar].[NC[C@H](N[*:1])C(=O)[*:2]].G.[am]}$PEPTIDE1,PEPTIDE1,1:R1-5:R3$$$V2.0)
[1]
  Emax: 113%
  EC50: 12.9 nM

## CC[C@H](C)[C@@H]1NC(=O)[C@H](Cc2ccc(O)cc2)NC(=O)CCS(=O)(=O)CC[C@@H](C(=O)N(C)CC(=O)N[C@H](C(=O)NCC(N)=O)C2CCCCC2)NC(=O)[C@H](CC(N)=O)NC(=O)[C@H](CCC(N)=O)NC1=O [Example 21] (HELM PEPTIDE1{Y.I.Q.N.[O=C([C@H](CCS(=O)(=O)CCC(=O)[*:3])N[*:1])[*:2]].[Sar].[O=C([C@@H](N[*:1])C1CCCCC1)[*:2]].G.[am]}$PEPTIDE1,PEPTIDE1,1:R1-5:R3$$$V2.0)
[1]
  Emax: 117%
  EC50: 0.4 nM

## CC[C@H](C)[C@@H]1NC(=O)[C@H](Cc2ccc(O)cc2)NC(=O)CCS(=O)(=O)CC[C@@H](C(=O)N(C)CC(=O)N[C@@](C)(CC(C)C)C(=O)NCC(N)=O)NC(=O)[C@H](CC(N)=O)NC(=O)[C@H](CCC(N)=O)NC1=O [Example 22] (HELM PEPTIDE1{Y.I.Q.N.[O=C([C@H](CCS(=O)(=O)CCC(=O)[*:3])N[*:1])[*:2]].[Sar].[CC(C)C[C@](C)(N[*:1])C(=O)[*:2]].G.[am]}$PEPTIDE1,PEPTIDE1,1:R1-5:R3$$$V2.0)
[1]
  Emax: 109%
  EC50: 2.5 nM

## CCC[C@H](NC(=O)[C@@H]1CCS(=O)(=O)CCC(=O)N[C@@H](Cc2ccc(O)cc2)C(=O)N[C@@H]([C@@H](C)CC)C(=O)N[C@@H](CCC(N)=O)C(=O)N[C@@H](CC(N)=O)C(=O)N1)C(=O)N[C@@H](CC(C)C)C(=O)NCC(N)=O [Example 23] (HELM PEPTIDE1{Y.I.Q.N.[O=C([C@H](CCS(=O)(=O)CCC(=O)[*:3])N[*:1])[*:2]].[Nva].L.G.[am]}$PEPTIDE1,PEPTIDE1,1:R1-5:R3$$$V2.0)
[1]
  EC50: 23 nM
  hOT efficacy: 123%

## CCCC[C@H](NC(=O)[C@@H]1CCS(=O)(=O)CCC(=O)N[C@@H](Cc2ccc(O)cc2)C(=O)N[C@@H]([C@@H](C)CC)C(=O)N[C@@H](CCC(N)=O)C(=O)N[C@@H](CC(N)=O)C(=O)N1)C(=O)N[C@@H](CC(C)C)C(=O)NCC(N)=O [Example 24] (HELM PEPTIDE1{Y.I.Q.N.[O=C([C@H](CCS(=O)(=O)CCC(=O)[*:3])N[*:1])[*:2]].[Nle].L.G.[am]}$PEPTIDE1,PEPTIDE1,1:R1-5:R3$$$V2.0)
[1]
  EC50: 40 nM
  hOT efficacy: 114%

## CC[C@H](C)[C@@H]1NC(=O)[C@H](Cc2ccc(O)cc2)NC(=O)CCS(=O)(=O)CC[C@@H](C(=O)N[C@@H](CO)C(=O)N[C@@H](CC(C)C)C(=O)NCC(N)=O)NC(=O)[C@H](CC(N)=O)NC(=O)[C@H](CCC(N)=O)NC1=O [Example 25] (HELM PEPTIDE1{Y.I.Q.N.[O=C([C@H](CCS(=O)(=O)CCC(=O)[*:3])N[*:1])[*:2]].S.L.G.[am]}$PEPTIDE1,PEPTIDE1,1:R1-5:R3$$$V2.0)
[1]
  EC50: 16 nM
  hOT efficacy: 137%

## CC[C@H](C)[C@@H]1NC(=O)[C@H](Cc2ccc(O)cc2)NC(=O)CCS(=O)(=O)CC[C@@H](C(=O)N[C@@H](CCO)C(=O)N[C@@H](CC(C)C)C(=O)NCC(N)=O)NC(=O)[C@H](CC(N)=O)NC(=O)[C@H](CCC(N)=O)NC1=O [Example 26] (HELM PEPTIDE1{Y.I.Q.N.[O=C([C@H](CCS(=O)(=O)CCC(=O)[*:3])N[*:1])[*:2]].[O=C([C@H](CCO)N[*:1])[*:2]].L.G.[am]}$PEPTIDE1,PEPTIDE1,1:R1-5:R3$$$V2.0)
[1]
  Emax: 140%
  EC50: 7 nM

## CC[C@H](C)[C@@H]1NC(=O)[C@H](Cc2ccc(O)cc2)NC(=O)CCS(=O)(=O)CC[C@@H](C(=O)N(CC(=O)N[C@H](C(=O)NCC(N)=O)C(C)C)C2CC2)NC(=O)[C@H](CC(N)=O)NC(=O)[C@H](CCC(N)=O)NC1=O [Example 29] (HELM PEPTIDE1{Y.I.Q.N.[O=C([C@H](CCS(=O)(=O)CCC(=O)[*:3])N[*:1])[*:2]].[O=C(CN(C1CC1)[*:1])[*:2]].V.G.[am]}$PEPTIDE1,PEPTIDE1,1:R1-5:R3$$$V2.0)
[2]
  Emax: 143%
  EC50: 3340 nM
[1]
  Emax: 105%
  EC50: 0.5 nM

## CC[C@H](C)[C@@H]1NC(=O)[C@H](Cc2ccc(O)cc2)NC(=O)CCS(=O)(=O)CC[C@@H](C(=O)N(CC(=O)NC(C)(C)C(=O)NCC(N)=O)C2CC2)NC(=O)[C@H](CC(N)=O)NC(=O)[C@H](CCC(N)=O)NC1=O [Example 30] (HELM PEPTIDE1{Y.I.Q.N.[O=C([C@H](CCS(=O)(=O)CCC(=O)[*:3])N[*:1])[*:2]].[O=C(CN(C1CC1)[*:1])[*:2]].[Aib].G.[am]}$PEPTIDE1,PEPTIDE1,1:R1-5:R3$$$V2.0)
[2]
  Emax: 131%
  EC50: 6340 nM
[1]
  EC50: 1 nM
  hOT efficacy: 97%

## CC[C@H](C)[C@H](NC(=O)CN(C(=O)[C@@H]1CCS(=O)(=O)CCC(=O)N[C@@H](Cc2ccc(O)cc2)C(=O)N[C@@H]([C@@H](C)CC)C(=O)N[C@@H](CCC(N)=O)C(=O)N[C@@H](CC(N)=O)C(=O)N1)C1CC1)C(=O)NCC(N)=O [Example 31] (HELM PEPTIDE1{Y.I.Q.N.[O=C([C@H](CCS(=O)(=O)CCC(=O)[*:3])N[*:1])[*:2]].[O=C(CN(C1CC1)[*:1])[*:2]].I.G.[am]}$PEPTIDE1,PEPTIDE1,1:R1-5:R3$$$V2.0)
[2]
  Emax: 150%
  EC50: 2940 nM
[1]
  Emax: 115%
  EC50: 0.4 nM
